Results reported in BindingDB's records for doi:10.1021/ml300128f (The Scripps Research Institute, 2012).

Target: Elastase (Pseudomonas aeruginosa (strain ATCC 15692 / DSM 22644 / CIP 104116 / JCM 14847 / LMG 12228 / 1C / PRS 101 / PAO1), UniProt P14756)
Experiment: Antagonist activity at Pseudomonas aeruginosa LasB using Abz-Ala-Gly-Leu-Ala-p-Nitro-Benzyl-Amide as substrate incubated for 30 mins prior to substrate addition by FRET assay

Sequence of Elastase (P14756 whole entry): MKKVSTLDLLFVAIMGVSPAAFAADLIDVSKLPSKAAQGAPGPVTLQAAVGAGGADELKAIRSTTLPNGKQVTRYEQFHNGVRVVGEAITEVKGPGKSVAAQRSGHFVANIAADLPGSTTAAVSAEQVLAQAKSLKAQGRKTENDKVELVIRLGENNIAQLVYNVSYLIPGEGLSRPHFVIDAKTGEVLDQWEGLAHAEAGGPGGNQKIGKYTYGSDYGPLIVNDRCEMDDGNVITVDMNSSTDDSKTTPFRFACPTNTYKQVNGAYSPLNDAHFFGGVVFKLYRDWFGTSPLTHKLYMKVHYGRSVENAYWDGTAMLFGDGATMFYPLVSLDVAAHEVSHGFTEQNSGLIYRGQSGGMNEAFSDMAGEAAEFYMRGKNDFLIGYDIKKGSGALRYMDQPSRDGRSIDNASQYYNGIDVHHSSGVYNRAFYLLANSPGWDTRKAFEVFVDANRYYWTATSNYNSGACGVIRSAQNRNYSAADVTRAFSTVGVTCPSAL

`CCc1c(O)c(=S)ccn1CC` showed an IC50 of 392 µM.

`Cc1c(O)c(=S)ccn1C` was tested, and the IC50 was 80.6 µM.
